Measurements: patent publication EP0464022B1, “INSULINOTROPIC HORMONE” (THE GENERAL HOSPITAL CORPORATION, priority 1989, dated 2000)

Assays:
[1] = system: insulinoma cell line RIN 1046-38; experiment: cAMP formation in insulinoma cell line; assay type: cell-based, rat; settings: for effects on the formation of cAMP: 5 nM and 50 pM; for effect on cAMP levels: 0.5 µM
Description: Cells were incubated for 10 minutes in the presence of 0, 10^-11, 10^-9, or 10^-7M peptides.

[2] = system: RINS-38 insulinoma cells; experiment: Cellular cAMP levels (Table 2); assay type: cell-based, rat; design: cAMP: unit not given here; settings: for stimulation of cAMP levels: even at 10^-11M; for cAMP: 10 minutes
Description: Cells were grown as described in Example 1, in […] culture dishes. Varying amounts of glucagon-like peptides were added to culture wells in triplicate. After permitting incubation for 10 minutes, the total cell media was examined for cAMP, and the concentration of cAMP was determined. Twenty microliters from each culture well was assayed.

[3] = Biological half-life
[4] = Stability in culture medium (HPLC and radioimmunoassay); assay type: in vitro ADME; settings: 24 hr; conditioned medium containing 01% bovine serum albumin
Description: To assess the stability of the […] peptide in the experimental conditions, GLP-1 (1-37) was incubated for 24 hr in culture medium alone or in medium supplemented with either 0.1% bovine serum albumin or 10% fetal bovine serum. Aliquots of media were analyzed by high-pressure liquid chromatography and radioimmunoassay.

[5] = system: rat pancreas; experiment: Pancreatic perfusion assay of insulinotropic activity (isolated perfused rat pancreas, insulin radioimmunoassay); assay type: in vivo
Description: The insulinotropic property of a compound may be determined by providing that compound to animal cells, or injecting that compound into animals and monitoring the release of immunoreactive insulin (IRI) into the media or circulatory system of the animal, respectively. The presence of IRI is detected through the use of a radioimmunoassay which can specifically detect insulin. Although any radioimmunoassay capable of detecting the presence of IRI may be employed, It is preferable to use a modification of the assay method of Albano, J.D.M., et al., (Acta Endocrinol. 70:487-509 (1972)). In this modification, a phosphate/albumin buffer with a pH of 7.4 was employed. The incubation was prepared with the consecutive condition of 500 µl of phosphate buffer, 50 µl of perfusate sample or rat insulin standard in perfusate, 100 µl of anti-insulin antiserum (Wellcome Laboratories; 1:40,000 dilution), and 100 µl of [^125I] insulin, giving a total volume of 750 µl in a 10 x 75-mm disposable glass tube. After incubation for 2-3 days at 4°C, free insulin was separated from antibody-bound insulin by charcoal separation. The assay sensitivity was 1-2 µU/ml.
The insulinotropic property of a compound may also be determined by pancreatic infusion. The in situ isolated perfused rat pancreas preparation was a modification of the method of Penhos, J.C., et al. (Diabetes 18:733-738 (1969)). In accordance with such a method, fasted rats (preferably male Charles River strain albino rats), weighing 350-600 g, are anesthetized with an intraperitoneal injection of Amytal Sodium (Eli Lilly and Co., 160 ng/kg). Renal, adrenal, gastric, and lower colonic blood vessels are ligated. The entire intestine is resected except for about four cm of duodenum and the descending colon and rectum. […] The perfusate is preferably a modified Krebs-Ringer bicarbonate buffer with 4% dextran T70 and 0.2% bovine serum albumin (fraction V), and is preferably bubbled with 95% O2 and 5% CO2. A nonpulsatile flow, four-channel roller-bearing pump (Buchler polystatic, Buchler Instruments Division, Nuclear-Chicago Corp.) is preferably used, and a switch from one perfusate source to another is preferably accomplished by switching a three-way stopcock.
Isolated rat pancreas was prepared according to the method of Weir, G.C., et al., (J. Clin. Invest. 54:1403-1412 (1974)), and Penkos, J.C., et al. (Diabetes 18:733-738 (1969)). The perfusate contained bicarbonate buffer (pH 7.4) and 120 mg/dl glucose, 4% dextran T-70, and 0.2% bovine serum albumin, and was equilibrated with 95% oxygen and 5% carbon dioxide. The first 20 minutes of each perfusion was an equilibrium period. After this initial period, aliquots of perfusate were removed every 2-4 min for additional 20 min, thus allowing the system to equilibrate for a total of 40 min. The perfusion, including any added insulinotropic peptide, was for 6 min and samples were collected at 1-min intervals. When more than one perfusion was to be performed, the peptide perfusions were followed by equilibration periods of 20 min, during which four samples 5 min apart were collected. […] Again, samples 1 min apart were collected. The entire perfusion time was between 70 and 85 mm.
In each aliquot of perfusate obtained, insulin was determined by radioimmunoassay.

[6] = system: Rat insulinoma cells of cell line RIN-38; experiment: mRNA levels by Northern hybridization in insulinoma cells; assay type: cell-based; settings: peptide 10^-7M; 25 mM glucose
Description: The cells were maintained in DMEM (Gibco) at a glucose concentration of 4,500 mg/L and supplemented with 10% heat-inactivated fetal bovine serum (Gibco), 100 U/ml of penicillin and 100 µg/ml of streptomycin. Incubations were carried out at 37°C in 95% air:5% CO2. Cells grown in the above manner were washed and resuspended in DMEM (Gibco) containing 0.1% bovine serum albumin and 25 mM glucose. […] In all cases, the concentration of peptides was 10^-7M. Incubations were for six hours.
Messenger RNAs specific for insulin, actin, or angiotensinogen were identified by Northern hybridization as follows: cellular RNA was extracted from solid tumors and cells by homogenization in guanidine thiocyanate and sedimentation through a cesium chloride cushion. Poly A^+ RNA was isolated by oligo dT cellulose chromatography (Aviv, H., et al., Proc. Natl. Acad. Sci., USA 69:1408-1412 (1972)). Twenty micrograms of total RNA from each sample were fractionated by size on a 1.4% agarose gel after denaturation in glyoxal, followed by electrotransfer to a nylon membrane (Nytran; Schleicher and Schuell). […] The relative amounts of the specific mRNA were determined by microdensitometry.

Substance: GLP-1-(1-36)-NH2: GLP-1 (1-36 des-gly-arg amide); Peninsula Laboratories
- effects on the formation of cAMP [1]: negligible
- effect on cAMP levels [1]: increased cAMP levels

Substance: GLP-1 (1-37): GLP-1 polypeptide having all amino acids from 1 (N-terminus) through 37 (C-terminus)
- effects on the formation of cAMP [1]: negligible
- effect on cAMP levels [1]: increased cAMP levels
- stimulation of cAMP levels [2]: neither GLP-1 (1-37) nor GLP-II exhibited such activity
- cAMP ([2]; peptide 10^-6 M): 170
- cAMP ([2]; peptide 10^-7 M): 120
- cAMP ([2]; peptide 10^-8 M): 160
- cAMP ([2]; peptide 10^-9 M): 100
- cAMP ([2]; peptide 10^-10 M): 90
- cAMP ([2]; peptide 10^-11 M): 90
- biological half-life [3]: 30-50 minutes
- stability: cleavage after incubation [4]: a small peak of GLP-1 (7-37) appeared
- increase in serum insulin concentrations ([5]; 5 x 10^-7M): 3.4 fold
- Insulin Produced ([5]; 5x10^-7M, 0 minutes (before peptide added)): 1,400 picograms/ml
- Insulin Produced ([5]; 5x10^-7M, 1 minute): 4,700 picograms/ml
- Insulin Produced ([5]; 5x10^-7M, 2 minutes): 2,900 picograms/ml
- Insulin Produced ([5]; 5x10^-7M, 3 minutes): 2,200 picograms/ml
- increase in serum insulin levels ([5]; 5 x 10^-8M): two-fold
- Insulin Produced ([5]; 5x10^-8M, 0 minutes (before peptide added)): 3,000 picograms/ml
- Insulin Produced ([5]; 5x10^-8M, 1 minute): 6,000 picograms/ml
- Insulin Produced ([5]; 5x10^-8M, 2 minutes): 2,000 picograms/ml
- Insulin Produced ([5]; 5x10^-8M, 3 minutes): 2,000 picograms/ml
- increase in serum insulin levels ([5]; 5 x 10^-10M): 20%
- Insulin Produced ([5]; 5x10^-10M, 0 minutes (before peptide added)): 500 picograms/ml
- Insulin Produced ([5]; 5x10^-10M, 1 minute): 600 picograms/ml
- Insulin Produced ([5]; 5x10^-10M, 2 minutes): 640 picograms/ml
- Insulin Produced ([5]; 5x10^-10M, 3 minutes): 430 picograms/ml
- effect on insulin levels ([5]; 5 x 10^-11M): without effect
- Insulin Produced ([5]; 5x10^-11M, 0 minutes (before peptide added)): 340 picograms/ml
- Insulin Produced ([5]; 5x10^-11M, 1 minute): 180 picograms/ml
- Insulin Produced ([5]; 5x10^-11M, 2 minutes): 230 picograms/ml
- Insulin Produced ([5]; 5x10^-11M, 3 minutes): 340 picograms/ml
- Insulin Produced ([5]; 5x10^-12M, 0 minutes (before peptide added)): 50 picograms/ml
- Insulin Produced ([5]; 5x10^-12M, 1 minute): 50 picograms/ml
- Insulin Produced ([5]; 5x10^-12M, 2 minutes): 160 picograms/ml
- Insulin Produced ([5]; 5x10^-12M, 3 minutes): 50 picograms/ml
- insulinotropic activity ([5]; 10^-11 M, five minute perfusion): inactive
- insulin-releasing activity ([5]; even at concentrations as high as 5 X 10^-7M): no insulin-releasing activity

Substance: GLP-II: glucagon-like peptide 2 (GLP-2) (HADGSFSDEMNTILDNLAARDFINWLIQTKITD; Glucagon-like peptide 2; UniProt P01275 146-178, looked up)
- effect on insulin mRNA levels [6]: no effects
- stimulation of cAMP levels [2]: neither GLP-1 (1-37) nor GLP-II exhibited such activity
